Assay results: patent US20230137943A1, “PHOTOPROXIMITY PROFILING OF PROTEIN-PROTEIN INTERACTIONS IN CELLS” (The University of Chicago, priority 2019, published 2023)

Target: T1, SNAP-FLAG/α-FLAG antibody complex (Homo sapiens, UniProt P16455, A127T/A154D/C150Q/C62A/E30R/G131K/G132T/G153L/K125A/K32I/L33F/M134L/N157G/Q115S/Q116H/R128A/R135S/S151G/S152D/S159E)
T1 construct: host or cells: clarified lysate of HEK293T cells transiently or stably expressing SnapFlag
T1 sequence (P16455 1-182 E30R/K32I/L33F/C62A/Q115S/Q116H/K125A/A127T/R128A/G131K/G132T/M134L/R135S/C150Q/S151G/S152D/G153L/A154D/N157G/S159E limits assumed): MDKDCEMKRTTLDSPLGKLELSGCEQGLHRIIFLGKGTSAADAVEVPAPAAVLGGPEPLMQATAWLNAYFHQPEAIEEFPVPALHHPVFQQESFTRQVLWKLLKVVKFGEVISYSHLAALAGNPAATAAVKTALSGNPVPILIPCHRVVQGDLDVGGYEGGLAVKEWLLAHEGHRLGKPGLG
Assay: Proximity-labeling assay in cell lysate (anti-biotin / anti-mouse Western blot)
Format: biochemical
Conditions: 500 nM probe; for Proximal labeling of heavy and light chains upon irradiation: 365 nm light 10 minutes (FIG. 4C, FIG. 12B)
Experimental: Proximity-labeling assays: Clarified cell lysate from HEK293T cells either transiently (see FIG. 4B) or stably (see FIG. 4C) expressing SNAP-Tag (NEB #N9183S; New England Biolabs, Ipswich, Mass., United States of America) or SnapFlag was normalized to 1 mg/mL and 250 μL aliquots incubated in a microcentrifuge tube with either 500 nM of PP1. PP2, or DMSO for 1 hour at 37° C. Washed anti-FLAG M2 affinity gel, 40 μL of a 50% slurry, was transferred to each reaction in 750 μL of DPBS and the resultant suspension left to rotate overnight at 4° C. (Sigma #A2220; Sigma-Aldrich, St. Louis, Mo., United States of America). Samples were then spun down at 4000×g, supernatant aspirated, and the resin washed with 1M urea in DPBS (1 mL×8) followed by DPBS (1 mL). After being resuspended in 100 μL of DPBS, the samples were placed on ice where they were irradiated with 365 nm light for 10 minutes (SPECTROLINKER™ XL-1500a UV crosslinker, Spectronics Corporation, Westbury, N.Y., United States of America). Once irradiated, the beads were washed with 100 mM pH 3.5 glycine buffer (100 μL×2) and DPBS (1 mL). To elute the remaining SNAP-FLAG and resin-bound FLAG-antibody the beads were boiled for 5 minutes at 95° C. in 20 μL 4×-loading buffer containing 8% SDS and 400 mM DTT. After which, 60 μL of DPBS was added and the suspension boiled at 95° C. for an additional 5 minutes. The samples were then run on SDS-PAGE gel and transferred to nitrocellulose where they were stained with anti-mouse IR dye (Li-cor #926-68072; Li-cor Biosciences, Lincoln, Nebr., United States of America) and streptavidin IR dye (Li-cor #926-32230; Li-cor Biosciences, Lincoln, Nebr., United States of America). Bands corresponding to biotinylated proteins and the FLAG antibody were visualized using an Odyssey infrared imager (Li-cor Biosciences, Lincoln, Nebr., United States of America).
To study if proximal protein interactors could be labeled in response to the dual photoactivation of PP1 in vitro, the interaction between SNAP-FLAG protein and an α-FLAG monoclonal antibody (mAb) was examined in cell lysate. In this assay, proximal biotinylation of both heavy and light chains of the antibody was expected, as well as self-labeling of the SNAP-FLAG protein, under conditions where the protein complex is formed and the PP1 probe is photoactivated. To test this hypothesis in the presence and absence of the protein-protein complex, SNAP protein that contained or lacked the FLAG epitope was treated with PP1 probe, followed by incubation with α-FLAG mAb, bead-based pulldown of the complexes, and subsequent photoactivation. […] The requirement for photoactivation of PP1, as well as a related probe PP2 (see FIG. 6) was tested by forming the SNAP-FLAG/α-FLAG complexes, and then comparing protein biotinylation with or without irradiation.
To study if proximal protein interactors could be labeled in response to the dual photoactivation of AC1 (see FIG. 12A) in vitro, the interaction between SNAP-FLAG protein and an α-FLAG monoclonal antibody (mAb) was examined in cell lysate. Briefly, 250 μL aliquots of cell lysate (HEK293T, SNAP-Flag) was incubated in a microcentrifuge tube with either 500 nM of photoprobe, or DMSO for 1 hour at 37° C. Washed anti-FLAG M2 affinity gel, 40 μL of a 50% slurry, was transferred to each reaction in 750 μL of DPBS and the resultant suspension left to rotate overnight at 4° C. (Sigma #A2220; Sigma-Aldrich, St. Louis, Mo., United States of America). Samples were then spun down at 4000×g, supernatant aspirated, and the resin washed with 1M urea in DPBS (1 mL×8) followed by DPBS (1 mL). After being resuspended in 250 μL of DPBS, the +UV samples were placed on ice where they were irradiated with 365 nm light for 10 minutes (SPECTROLINKER™ XL-1500a UV crosslinker, Spectronics Corporation, Westbury, N.Y., United States of America). Once irradiated, the beads were washed with 1 M Urea (1 mL×2) and DPBS (1 mL×2). […]

Row | Biotinylation with SNAP protein that lacked the FLAG sequence (no FLAG epitope, 365 nm 10 minutes (FIG. 4B)) | Proximal labeling of heavy/light chain without irradiation (not exposed to 365 nm light (FIG. 4C)) | SMILES | Proximal labeling of heavy and light chains upon irradiation | Biotinylation of α-FLAG antibody chains with SNAP-FLAG protein (FLAG epitope present, 365 nm 10 minutes (FIG. 4B))
1 | no protein-biotinylation | No proximal labeling | COc1cc(C(C)OC(=O)NC(CCCCNC(=O)CCC2(C)N=N2)C(=O)NCCCCCNC(=O)CCCCC2SCC3NC(=O)NC32)c([N+](=O)[O-])cc1OCCCC(=O)NCc1ccc(COc2nc(N)nc3[nH]cnc23)cc1 (centres unmarked) [PP1] | a discrete biotinylated band was formed on both heavy and light chains | robust biotinylation of both heavy and light chain fragments
2 |  |  | COc1cc(COC(=O)NC(CCCCNC(=O)CCC2(C)N=N2)C(=O)NCCCCC2SCC3NC(=O)NC32)c([N+](=O)[O-])cc1OCCCC(=O)NCc1ccc(COc2nc(N)nc3[nH]cnc23)cc1 (centres unmarked) [AC1] | labels a proximal protein binding partner | 
